The record followed here is ChEMBL document CHEMBL1129374 (J Med Chem, 1996).

Assay [1] has as its target T1, Folylpolyglutamate synthase, mitochondrial (Homo sapiens, UniProt Q05932).
T1 sequence (Q05932 whole entry): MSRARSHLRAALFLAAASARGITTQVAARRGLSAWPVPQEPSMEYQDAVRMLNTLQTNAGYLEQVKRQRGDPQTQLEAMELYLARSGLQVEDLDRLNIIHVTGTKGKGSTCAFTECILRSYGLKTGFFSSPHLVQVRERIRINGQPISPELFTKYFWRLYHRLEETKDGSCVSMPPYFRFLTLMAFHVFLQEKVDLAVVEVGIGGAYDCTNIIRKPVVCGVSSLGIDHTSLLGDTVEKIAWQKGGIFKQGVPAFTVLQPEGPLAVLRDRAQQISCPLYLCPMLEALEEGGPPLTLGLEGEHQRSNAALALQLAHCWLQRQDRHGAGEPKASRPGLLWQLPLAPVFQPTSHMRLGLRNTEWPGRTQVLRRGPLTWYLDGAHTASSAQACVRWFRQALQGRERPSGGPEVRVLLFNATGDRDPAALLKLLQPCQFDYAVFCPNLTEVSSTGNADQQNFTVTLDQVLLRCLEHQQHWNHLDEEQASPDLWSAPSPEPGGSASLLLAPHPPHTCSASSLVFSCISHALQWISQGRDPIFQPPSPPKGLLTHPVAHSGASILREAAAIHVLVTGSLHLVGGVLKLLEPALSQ
Nature of the assay: Compound was evaluated for the inhibitory activity against Folyl-polyglutamate synthase from CCRF-CEM human leukemia cells. It counts as cell-based.

For assay [2], the system named is L1210. Nature of the assay: Compound was evaluated for the inhibition of L1210 murine leukemia cell growth. To be noted: Mus musculus. It is filed as functional, cell-based.
A further assay has as its target T2, Dihydrofolate reductase (Mus musculus, UniProt P00375).
T2 sequence (P00375 whole entry): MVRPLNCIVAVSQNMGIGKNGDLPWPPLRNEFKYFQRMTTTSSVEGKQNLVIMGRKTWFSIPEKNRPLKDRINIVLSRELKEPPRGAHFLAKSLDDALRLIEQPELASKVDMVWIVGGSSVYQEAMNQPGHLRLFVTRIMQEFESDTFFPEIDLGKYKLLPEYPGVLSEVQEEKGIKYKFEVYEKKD
Nature of the assay: compound was evaluated for the inhibitory activity against Dihydrofolate reductase in permeabilised L1210 cells. It counts as cell-based.

Assay [3] relates to L1210. Nature of the assay: Compound was evaluated for the inhibition of L1210 murine leukemia cell growth.(In this study). To be noted: Mus musculus.
Assay [4] relates to L1210. Nature of the assay: Compound was evaluated for the inhibition of L1210 murine leukemia cell growth.(From ref 12b). The note with it: Mus musculus.

Consider `CN(Cc1cnc2nc(N)nc(N)c2n1)c1ccc(C(=O)NC(Cc2cn(CC(=O)O)cn2)C(=O)O)cc1` (configuration not stated), for which the IC50 (as a rule, the concentration at which inhibition is half-maximal) was greater than 200000 nM in assay [1], 150 nM in the assay on L1210 [2] and 370 nM against Dihydrofolate reductase.

For `CN(Cc1cnc2nc(N)nc(N)c2n1)c1ccc(C(=O)N[C@@H](CCC(=O)O)C(=O)O)cc1` [METHOTREXATE], the IC50 in assay [1] came out at 3200 nM; in the assay with L1210 [3], 7 nM; in the assay with L1210 [4], 1300 nM.

Consider `Nc1nc2ncc(CNc3ccc(C(=O)NC(Cc4cnc[nH]4)C(=O)O)cc3)nc2c(=O)[nH]1` (configuration not stated), for which the results for the IC50 (in assay [1]; in the assay with L1210 [2]; against Dihydrofolate reductase) were greater than 200000 nM, greater than 100000 nM and greater than 100000 nM, respectively.

On to `CN(Cc1cnc2nc(N)nc(N)c2n1)c1ccc(C(=O)NC(Cc2cnc[nH]2)C(=O)O)cc1` (configuration not stated), for which the results for the IC50 (in assay [1]; with L1210 [2]; against Dihydrofolate reductase) were greater than 200000 nM, 91 nM and 1300 nM, respectively.
